Test results published in patent US11844755B2, “Compounds and their use as therapeutically active substances in the treatment and/or reducing signs or symptoms of diseases involving the retinal pigment epithelium” (ENDOGENA THERAPEUTICS, INC., priority 2020, dated 2023).

How the values were obtained:
iPSC-fRPE cells [1] = assay: RPE pigmentation screen (light absorbance at 510 nm); type: cell-based, human; conditions: test compound 5 μM in 0.1% DMSO, 32 days, relative to plate internal DMSO controls (control = 1); for fold induction at 5 µM: Homo sapiens, 768 h
Description: (§1) Induced pluripotent stem cell-derived fetal RPE (iPSC-fRPE) cells acquired from the University of California, Santa Barbara, were generated from human fetal RPE cells that were isolated and reprogramed to iPSC, then differentiated and sorted for cellular markers to collect RPE progenitors. Vials were transported frozen on dry ice and stored in −80° C.
(§2) For the phenotypic screens, iPSC-fRPE cells were thawed and cultured in Matrigel-coated flasks with N1VA media containing 1XMEM solution supplemented with 2.2 g/L Sodium Bicarbonate, 0.25 mg/ml Taurine, 0.02 ug/ml Hydrocortisone, 0.013 ug/ml Triiodo Thyronine, 0.1 ug/ml Lipoic acid, 1% MEM Non-Essential Amino Acids, 1% Penicilin/Streptomycin, 2% Neurocult SM1 supplement and 1% N1 supplement. For the initial cultures, Thiazovivin was added to the media at 2 μM for the first 24 hr of incubation, after which the media was replaced with fresh N1VA media for additional three-day incubation at 37° C. with 5% CO2.
(§3) iPSC-fRPE cells were plated with N1VA media at a density of 10,000 cells per well in Matrigel-coated 96-well plates and cultured for 24 h prior to the treatment with test compounds at a final concentration of 5 μM in 0.1% DMSO. Internal controls for each test plate were (a) 0.1% DMSO as a negative control and (b) 0.1% DMSO+10 ng/ml human recombinant bFGF (STEMCELL) as a positive control.
To identify compounds that promote RPE pigmentation, cells were maintained for a period of 32 days and treated with medium containing the test or control compounds according to the media exchange regimen (FIG. 1). The degree of pigmentation was quantified by measuring the light absorbance at 510 nm with Cytation5 imaging reader (BIOTEK). Pigmentation values are finally reported relative to plate internal DMSO controls.

iPSC-fRPE cells [2] = assay: RPE cell proliferation (Hoechst 33342 live cell number); type: cell-based, human; conditions: test compound 5 μM in 0.1% DMSO, fixed at Day 5, Hoechst 33342 cell number, relative to plate internal DMSO controls (control = 1); for fold induction at 5 µM: Homo sapiens, RPE, 120 h, read-out: Relative Growth
Description: as §1, §2, §3
To assess proliferation of RPE cells, a replicate of compound-treated RPE cells were fixed at Day 5 and stained with Hoechst 33342 to determine live cell number with fluorescent microscopy. Cell numbers are reported relative to plate internal DMSO controls.

## 2-(chroman-3-yl)-6-(oxazol-5-yl)benzo[d]oxazole [Compound 10]
iPSC-fRPE cells [1]
  Relative Pigmentation: 1.71
iPSC-fRPE cells [2]
  Relative Growth: 1.12

## 2-(chroman-3-yl)-6-(oxazol-5-yl)benzo[d]oxazole [Compound 11]
iPSC-fRPE cells [1]
  Relative Pigmentation: 6.24
iPSC-fRPE cells [2]
  Relative Growth: 1.42

## c1ccc2c(c1)CC(c1nc3ccc(-c4cnco4)cc3[nH]1)O2 (racemic) [Compound 3, 2-(2,3-dihydro-1-benzofuran-2-yl)-6-(1,3-oxazol-5-yl)-1H-1,3-benzodiazole]
iPSC-fRPE cells [1]
  fold induction at 5 µM: 2.77
iPSC-fRPE cells [2]
  fold induction at 5 µM: 1.36

## Fc1ccc2c(c1)OCC(c1nc3ccc(-c4cnco4)cc3[nH]1)C2 (racemic) [Compound 4, 2-(7-fluoro-3,4-dihydro-2H-1-benzopyran-3-yl)-6-(1,3-oxazol-5-yl)-1H-1,3-benzodiazole]
iPSC-fRPE cells [1]
  fold induction at 5 µM: 5.08
iPSC-fRPE cells [2]
  fold induction at 5 µM: 1.78

## Clc1ccc2c(c1)CC(c1nc3ccc(-c4cnco4)cc3[nH]1)CO2 (racemic) [Compound 5, 2-(6-chloro-3,4-dihydro-2H-1-benzopyran-3-yl)-6-(1,3-oxazol-5-yl)-1H-1,3-benzodiazole]
iPSC-fRPE cells [1]
  fold induction at 5 µM: 1.04
iPSC-fRPE cells [2]
  fold induction at 5 µM: 1.52

## Fc1cc(F)c2c(c1)CC(c1nc3ccc(-c4cnco4)cc3[nH]1)CO2 (racemic) [Compound 6, 2-(6,8-difluoro-3,4-dihydro-2H-1-benzopyran-3-yl)-6-(1,3-oxazol-5-yl)-1H-1,3-benzodiazole]
iPSC-fRPE cells [1]
  fold induction at 5 µM: 2.3
iPSC-fRPE cells [2]
  fold induction at 5 µM: 1.42

## Fc1cc(-c2cnco2)cc2[nH]c(C3COc4ccccc4C3)nc12 (racemic) [Compound 8, 2-(3,4-dihydro-2H-1-benzopyran-3-yl)-7-fluoro-5-(1,3-oxazool-5-yl)-1H-1,3-benzodiazole]
iPSC-fRPE cells [1]
  fold induction at 5 µM: 2.75
iPSC-fRPE cells [2]
  fold induction at 5 µM: 1.49

## Fc1c(-c2cnco2)ccc2nc(C3COc4ccccc4C3)[nH]c12 (racemic) [Compound 9, 2-(3,4-dihydro-2H-1-benzopyran-3-yl)-4-fluoro-5-(1,3-oxazol-5-yl)-1H-1,3-benzodiazole]
iPSC-fRPE cells [1]
  fold induction at 5 µM: 4.27
iPSC-fRPE cells [2]
  fold induction at 5 µM: 1.13

## c1ccc2c(c1)C[C@H](c1nc3ccc(-c4cnco4)cc3[nH]1)CO2 [Compound 1, (R)-5-(2-(chroman-3-yl)-1H-benzo[d]imidazol-6-yl)oxazole]
iPSC-fRPE cells [1]
  fold induction at 5 µM: 4.98
iPSC-fRPE cells [2]
  fold induction at 5 µM: 1.7

## c1ccc2c(c1)C[C@@H](c1nc3ccc(-c4cnco4)cc3[nH]1)CO2 [Compound 2, (S)-5-(2-(chroman-3-yl)-1H-benzo[d]imidazol-6-yl)oxazole]
iPSC-fRPE cells [1]
  fold induction at 5 µM: 1.59
iPSC-fRPE cells [2]
  fold induction at 5 µM: 1.25

## c1ccc2c(c1)CC(c1nc3ccc(-c4cnco4)cc3[nH]1)C2 [Compound 7, 2-(2,3-dihydro-1H-inden-2-yl)-6-(1,3-oxazolyl)-1H-1,3-benzodiazole]
iPSC-fRPE cells [1]
  fold induction at 5 µM: 2.36
iPSC-fRPE cells [2]
  fold induction at 5 µM: 1.34
